Target: T1, Beta-glucuronidase (Homo sapiens, UniProt P08236)
T1 sequence (P08236 whole entry): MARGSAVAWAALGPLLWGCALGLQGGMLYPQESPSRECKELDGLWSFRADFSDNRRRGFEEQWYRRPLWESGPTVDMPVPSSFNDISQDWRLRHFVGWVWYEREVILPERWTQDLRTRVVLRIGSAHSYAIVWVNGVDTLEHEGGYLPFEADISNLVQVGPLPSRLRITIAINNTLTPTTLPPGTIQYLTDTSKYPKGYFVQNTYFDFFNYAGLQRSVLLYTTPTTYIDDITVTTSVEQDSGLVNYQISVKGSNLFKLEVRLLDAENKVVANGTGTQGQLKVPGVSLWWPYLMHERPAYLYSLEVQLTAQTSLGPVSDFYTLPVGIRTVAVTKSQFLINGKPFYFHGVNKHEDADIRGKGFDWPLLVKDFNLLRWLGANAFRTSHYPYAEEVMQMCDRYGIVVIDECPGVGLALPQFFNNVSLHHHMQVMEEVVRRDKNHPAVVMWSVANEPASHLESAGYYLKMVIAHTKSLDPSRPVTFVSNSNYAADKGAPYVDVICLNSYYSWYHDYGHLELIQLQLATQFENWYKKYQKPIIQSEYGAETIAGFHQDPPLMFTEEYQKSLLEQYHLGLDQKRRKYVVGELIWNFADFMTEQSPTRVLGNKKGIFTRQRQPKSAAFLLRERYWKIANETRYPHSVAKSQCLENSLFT
Assay: β-Glucuronidase Bioassay
Protocol: The total reaction volume was 250 µL. The reaction mixture contained 185 µL of 0.1 M acetate buffer, 5 µL of test compound solution, 10 µL of enzyme solution was incubated at 37 °C for 30 min. […] All assays were run in triplicate.

Compound	IC50 [µM]
COc1ccccc1NC(=S)NNC(=O)c1ccc(C(c2c[nH]c3ccccc23)c2c[nH]c3ccccc23)cc1 [2-(4-(Di(1H-indol-3-yl)methyl)benzoyl)-N-(2-methoxyphenyl)hydrazinecarbothioamide (18)]	9.4
COc1ccc(NC(=S)NNC(=O)c2ccc(C(c3c[nH]c4ccccc34)c3c[nH]c4ccccc34)cc2)cc1 [2-(4-(Di(1H-indol-3-yl)methyl)benzoyl)-N-(4-methoxyphenyl)hydrazinecarbothioamide (9)]	11.6
Cc1cccc(NC(=S)NNC(=O)c2ccc(C(c3c[nH]c4ccccc34)c3c[nH]c4ccccc34)cc2)c1 [2-(4-(Di(1H-indol-3-yl)methyl)benzoyl)-N-(m-tolyl)hydrazinecarbothioamide (11)]	14.7
O=C(NNC(=S)Nc1ccc(Br)cc1)c1ccc(C(c2c[nH]c3ccccc23)c2c[nH]c3ccccc23)cc1 [N-(4-Bromophenyl)-2-(4-(di(1H-indol-3-yl)methyl)benzoyl)hydrazinecarbothioamide (7)]	33.2
Cc1ccc(NC(=S)NNC(=O)c2ccc(C(c3c[nH]c4ccccc34)c3c[nH]c4ccccc34)cc2)cc1 [2-(4-(Di(1H-indol-3-yl)methyl)benzoyl)-N-(p-tolyl)hydrazinecarbothioamide (5)]	15
COc1cccc(NC(=S)NNC(=O)c2ccc(C(c3c[nH]c4ccccc34)c3c[nH]c4ccccc34)cc2)c1 [2-(4-(Di(1H-indol-3-yl)methyl)benzoyl)-N-(3-methoxyphenyl)hydrazinecarbothioamide (15)]	28.1
O=C(NNC(=S)Nc1cccc(Br)c1)c1ccc(C(c2c[nH]c3ccccc23)c2c[nH]c3ccccc23)cc1 [N-(3-Bromophenyl)-2-(4-(di(1H-indol-3-yl)methyl)benzoyl)hydrazinecarbothioamide (13)]	21.4
O=C(NNC(=S)Nc1ccc([N+](=O)[O-])cc1)c1ccc(C(c2c[nH]c3ccccc23)c2c[nH]c3ccccc23)cc1 [2-(4-(Di(1H-indol-3-yl)methyl)benzoyl)-N-(4-nitrophenyl)hydrazinecarbothioamide (10)]	12

From BindingDB's records for doi:10.1016/j.bioorg.2016.07.008 (Universiti Teknologi Mara, 2016)
